Patent US10124004B2, “Pyrido[3,4-d]pyrimidine derivative and pharmaceutically acceptable salt thereof” (Teijin Pharma Limited, priority 2015, dated 2018)
Read-outs that look alike come from different tables or passages of the source.

How the values were obtained:
CDK4/cyclin D3 = target: T1, CDK4/cyclin D3 (Homo sapiens, UniProt P11802); assay: Human CDK4/cyclin D3 inhibitory activity (QS S Assist CDK4/Cyclin D3_FP Kit, IMAP fluorescence polarization); assay type: biochemical
T1 construct: purchased Carna Biosciences, Inc. QS S Assist CDK4/Cyclin D3_FP Kit
T1 sequence (P11802 whole entry): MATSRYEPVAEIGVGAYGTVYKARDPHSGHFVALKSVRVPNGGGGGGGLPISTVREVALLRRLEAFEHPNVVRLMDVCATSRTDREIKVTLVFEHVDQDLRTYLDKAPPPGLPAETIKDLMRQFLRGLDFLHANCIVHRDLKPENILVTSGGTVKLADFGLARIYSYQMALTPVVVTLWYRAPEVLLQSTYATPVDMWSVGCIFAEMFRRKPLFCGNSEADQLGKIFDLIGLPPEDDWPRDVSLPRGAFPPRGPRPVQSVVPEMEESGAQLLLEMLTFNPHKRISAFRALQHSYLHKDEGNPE
T1 sequence (P30281 whole entry partner): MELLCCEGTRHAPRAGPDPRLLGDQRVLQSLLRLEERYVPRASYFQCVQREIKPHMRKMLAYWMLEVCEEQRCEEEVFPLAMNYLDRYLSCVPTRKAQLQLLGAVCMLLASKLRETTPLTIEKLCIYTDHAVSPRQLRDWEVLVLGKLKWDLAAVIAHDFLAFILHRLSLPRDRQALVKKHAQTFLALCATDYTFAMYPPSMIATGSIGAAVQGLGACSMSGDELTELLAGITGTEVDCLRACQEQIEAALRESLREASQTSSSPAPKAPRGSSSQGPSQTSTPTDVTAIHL
Method in brief: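 IMAP fluorescence-polarization kinase assay with kit ATP/substrate/metal mix and 12.5 to 25 ng/well enzyme in 20 mM HEPES pH 7.4, 0.01% Tween20, 2 mM DTT. Reaction ran 45 min at room temperature, then binding reagent was added for 30 min in the dark. IC50 was taken from dose-response fits of percent inhibition.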

CDK2/cyclin A2 = target: T2, CDK2/cyclin A2 (Homo sapiens, UniProt P24941); assay: Human CDK2/cyclin A2 inhibitory activity (QS S Assist CDK2/Cyclin A2_FP Kit, IMAP fluorescence polarization); assay type: biochemical
T2 construct: purchased Carna Biosciences, Inc. QS S Assist CDK2/Cyclin A2_FP Kit
Method in brief: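 Kinase activity read as fluorescence polarization (485/535 nm) after phosphorylated fluorescent substrate binds IMAP reagent (30 min, RT, dark). Enzyme (2.5 ng/well) reacted 60 min at RT with ATP/substrate/metal in HEPES pH 7.4 buffer with Tween 20 and DTT; no-enzyme wells define 0% activity; IC50 by curve fit.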

[1] = Human CDK4/cyclin D3 inhibitory activity, read-out: CDK4 Activity symbol
[2] = Human CDK2/cyclin A2 inhibitory activity, read-out: CDK2 Activity symbol
[3] = 50% inhibitory concentration against CDK4/cyclin D3, given as class symbol
[4] = 50% inhibitory concentration against CDK2/cyclin A2, given as class symbol

| SMILES | IC50 (CDK4/cyclin D3; [1]) [nM] | IC50 (CDK2/cyclin A2; [2]) [nM] | IC50 (CDK4/cyclin D3; [3]) [nM] | IC50 (CDK2/cyclin A2; [4]) [nM] |
| --- | --- | --- | --- | --- |
| CC(C)Nc1nc(C(F)F)cc2cnc(Nc3ccc(CN4CCNC(C)(C)C4)cn3)nc12 [Compound 174] | < 10 | 10 to 100 |  |  |
| CC(C)Nc1nc([C@@H](C)O)cc2cnc(Nc3ccc(NC(=O)C4CCCCN4)cn3)nc12 (stereo partly shown) [Compound 788] |  |  | < 10 | ≥ 100 |
| CC(C)Nc1nc([C@@H](C)O)cc2cnc(Nc3cc4c(cn3)CN(C(=O)CO)CC4)nc12 [Compound 655] |  |  | 10 to 100 | ≥ 100 |
| CC(C)Nc1nc(C(C)O)cc2cnc(Nc3ccc(N4CCC(O)CC4)cn3)nc12 (stereo not shown) [Compound 61] | < 10 | ≥ 100 |  |  |
| CC(C)Nc1nc([C@@H](C)O)cc2cnc(Nc3ccc(N4CCC(C(=O)O)CC4)nn3)nc12 [Compound 792] |  |  | 10 to 100 | ≥ 100 |
| C[C@@H](O)c1cc2cnc(Nc3ccc(N4CCNCC4)cn3)nc2c(NCCCF)n1 [Compound 1212] |  |  | < 10 | ≥ 100 |
| CC(C)Oc1nc(C(F)F)cc2cnc(Nc3ccc(N4CCNCC4)cn3)nc12 [Compound 7] | < 10 | ≥ 100 |  |  |
| CCNc1nc([C@@H](C)OC)cc2cnc(Nc3ccc(N4CCNCC4)nn3)nc12 [Compound 817] |  |  | < 10 | ≥ 100 |
| CC(C)Nc1nc([C@@H](C)O)c(Cl)c2cnc(Nc3ccc(N4CCC(OCC(=O)O)CC4)nn3)nc12 [Compound 703] |  |  | 10 to 100 | ≥ 100 |
| C[C@@H](O)c1cc2cnc(Nc3ccc(CN4CCC[C@H](O)C4)cn3)nc2c(N[C@H]2CC[C@H](O)CC2)n1 [Compound 1190] |  |  | < 10 | ≥ 100 |
| CNC1CCN(c2ccc(Nc3ncc4cc(C(C)O)nc(NC(C)C)c4n3)nn2)CC1F (stereo not shown) [Compound 609] | < 10 | ≥ 100 |  |  |
| CCNc1nc([C@@H](C)O)cc2cnc(Nc3ccc(N4CCNCC4)c(C)n3)nc12 [Compound 1091] |  |  | < 10 | ≥ 100 |
| CNC1CCCC1Oc1ccc(Nc2ncc3cc(C(C)O)nc(NC(C)C)c3n2)nc1 (stereo not shown) [Compound 799] |  |  | < 10 | ≥ 100 |
| CO[C@H](C)c1cc2cnc(Nc3ccc(CN4CCN(CC(N)=O)CC4)cn3)nc2c(NC(C)C)n1 [Compound 970] |  |  | < 10 | ≥ 100 |
| C[C@@H](O)c1cc2cnc(Nc3ccc(CN4CCNCC4)cn3)nc2c(NC2CCS(=O)(=O)CC2)n1 [Compound 314] | < 10 | ≥ 100 |  |  |
| C[C@@H](O)c1cc2cnc(Nc3ccc(CN4CCN(CCO)CC4)cn3)nc2c(NC(C)(C)C)n1 [Compound 1071] |  |  | < 10 | ≥ 100 |
| CC(C)Nc1nc([C@@H](C)O)cc2cnc(Nc3ccc(N4CCNC(C(C)C)C4=O)cn3)nc12 (stereo partly shown) [Compound 732] |  |  | < 10 | ≥ 100 |
| CC(C)Nc1nc(C(C)O)cc2cnc(Nc3ccc(N4CCN(C)CC4)cn3)nc12 (stereo not shown) [Compound 71] | < 10 | ≥ 100 |  |  |
| C[C@@H](O)c1cc2cnc(Nc3ccc(N4CCN(C=O)CC4=O)cn3)nc2c(NC2CCOCC2)n1 [Compound 355] | < 10 | ≥ 100 |  |  |
| CCNc1nc([C@@H](C)O)cc2cnc(Nc3ccc(CN4CC5CCC(C4)N5C)cn3)nc12 [Compound 1222] |  |  | < 10 | ≥ 100 |
| CO[C@H](C)c1cc2cnc(Nc3ccc(N4CCCCC(N)C4=O)cn3)nc2c(NC(C)C)n1 (stereo partly shown) [Compound 553] | < 10 | ≥ 100 |  |  |
| CC(C)Nc1nc([C@@H](C)O)cc2cnc(Nc3ccc(C(=O)N4CCN(CCO)CC4)cn3)nc12 [Compound 1165] |  |  | < 10 | 10 to 100 |
| CC(C)Nc1nc([C@@H](C)O)cc2cnc(Nc3ccc(CC(=O)N4CCNC5(CC5)C4)cn3)nc12 [Compound 669] |  |  | 10 to 100 | ≥ 100 |
| CCCNc1nc([C@@H](C)O)cc2cnc(Nc3ccc(N4CCNCC4=O)cn3)nc12 [Compound 814] |  |  | < 10 | ≥ 100 |
| CC(C)Nc1nc(C(C)O)cc2cnc(Nc3ccc(N4CCN(CCO)CC4)cn3)nc12 (stereo not shown) [Compound 74] | < 10 | ≥ 100 |  |  |
| C[C@@H](O)c1cc2cnc(Nc3ccc(N4CCNCC4=O)cn3)nc2c(NC(C)(C)C)n1 [Compound 795] |  |  | < 10 | 10 to 100 |
| CC(C)Nc1nc(C(F)F)c(Cl)c2cnc(Nc3ccc(N4CCNCC4=O)cn3)nc12 [Compound 850] |  |  | 10 to 100 | 10 to 100 |
| CC(C)Nc1nc(C(C)O)cc2cnc(Nc3ccc(N4CCC(N(C)C)C(F)C4)nn3)nc12 (stereo not shown) [Compound 621] | < 10 | ≥ 100 |  |  |
| CC(C)Nc1nc([C@@H](C)O)cc2cnc(Nc3ccc(N4CCN(C(C)C#N)CC4=O)cn3)nc12 (stereo partly shown) [Compound 936] |  |  | < 10 | ≥ 100 |
